Source: US20250388605A1, “HETEROBIFUNCTIONAL COMPOUNDS AND METHODS OF TREATING DISEASE” (Halda Therapeutics OpCo, Inc., priority 2022, published 2025)
pIC50, pKi: −log10 of the molar value.

Assays:
[1] = target: T1, androgen receptor (Homo sapiens, UniProt P10275); test: Assay for binding affinity to androgen receptor ([3H]methyltrienolone radioligand competition, cell cytosol); conditions: binding to the androgen receptor, 1 nM [3H]methyltrienolone, 24 hr at 4° C.
T1 construct: host or cells: unnamed cells, cytosolic fraction
T1 sequence (P10275 1-920): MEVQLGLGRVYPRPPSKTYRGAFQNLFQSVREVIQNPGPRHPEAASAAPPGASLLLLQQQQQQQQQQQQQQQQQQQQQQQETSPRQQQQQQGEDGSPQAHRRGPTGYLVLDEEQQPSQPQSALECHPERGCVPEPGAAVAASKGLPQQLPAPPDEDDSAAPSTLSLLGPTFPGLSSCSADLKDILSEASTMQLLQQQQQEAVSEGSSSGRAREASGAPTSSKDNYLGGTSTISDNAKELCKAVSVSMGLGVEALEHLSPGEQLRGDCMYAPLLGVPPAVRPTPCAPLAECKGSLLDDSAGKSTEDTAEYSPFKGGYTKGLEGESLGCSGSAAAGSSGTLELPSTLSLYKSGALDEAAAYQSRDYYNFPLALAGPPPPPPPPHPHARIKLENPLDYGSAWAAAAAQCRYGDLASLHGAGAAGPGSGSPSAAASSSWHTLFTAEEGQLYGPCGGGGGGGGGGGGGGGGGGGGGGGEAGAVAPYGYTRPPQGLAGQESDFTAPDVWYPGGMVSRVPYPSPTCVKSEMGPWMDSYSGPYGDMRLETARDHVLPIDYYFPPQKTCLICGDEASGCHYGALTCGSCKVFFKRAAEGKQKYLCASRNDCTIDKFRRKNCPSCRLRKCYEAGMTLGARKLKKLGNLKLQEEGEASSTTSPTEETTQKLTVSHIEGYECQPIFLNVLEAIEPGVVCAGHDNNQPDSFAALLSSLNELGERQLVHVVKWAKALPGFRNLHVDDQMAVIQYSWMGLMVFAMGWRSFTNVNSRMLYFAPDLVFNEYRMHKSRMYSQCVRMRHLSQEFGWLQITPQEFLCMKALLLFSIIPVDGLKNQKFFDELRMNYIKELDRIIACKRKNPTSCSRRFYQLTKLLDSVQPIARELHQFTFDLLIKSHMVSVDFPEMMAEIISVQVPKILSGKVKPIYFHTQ

[2] = test system: T-Rex 293 cell line SC cells having increased expression of progesterone receptor isoform B protein; test: Cellular growth inhibition assay, T-Rex 293 SC cells exposed to doxycycline (increased progesterone receptor isoform B expression), CellTiter-Glo; assay type: cell-based; conditions: T-Rex 293 SC cells with 10 ng/mL doxycycline (increased PR isoform B), 72 hours
[3] = target: T2, progesterone receptor ligand binding domain (GST-tagged PR LBD) (Homo sapiens, UniProt P06401); test: FP Assay for Binding Affinity to Progesterone Receptor (PolarScreen Progesterone Receptor Competitor Assay Kit); conditions: fluorescence polarization, Fluormone tracer, 2 hours at room temperature
T2 construct: purchased Life Technologies A15905 or a15906
T2 sequence (P06401 679-913 limits assumed): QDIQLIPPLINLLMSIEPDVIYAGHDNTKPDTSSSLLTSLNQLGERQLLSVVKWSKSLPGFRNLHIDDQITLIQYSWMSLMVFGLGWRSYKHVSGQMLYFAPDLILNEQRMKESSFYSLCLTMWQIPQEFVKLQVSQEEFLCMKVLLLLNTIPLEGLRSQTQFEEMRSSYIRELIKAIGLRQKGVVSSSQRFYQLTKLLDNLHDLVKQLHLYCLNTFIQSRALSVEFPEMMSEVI
Procedure: Exemplary compounds were tested for ability to bind to the progesterone receptor ligand binding domain (LBD).
Compounds were tested using the PolarScreen™ Progesterone Receptor Competitor Assay Kit (Life Technologies Cat #A15905 or a15906), as per the manufacturer's instructions. Briefly, GST-tagged PR LBD, Fluormone tracer, and compound were mixed and incubated for 2 hours at room temperature in the dark. Following incubation, the plates were spun at 3000×g for 30 seconds, then sealed with an optical adhesive cover, and fluorescence polarization was measured using appropriate excitation and emission filters with an EnVision Plate Reader (Perkin Elmer). Compound concentration vs. mP value were plotted in Prism (GraphPad). A four-parameter non-linear regression curve fit was applied to dose-response data to determine the half-maximal inhibitory concentration (IC50) for each test compound.

SMILES	pKi [1]	pIC50 [3]	GI50 [2] [nM]
CCS(=O)(=O)Nc1ccc(Oc2cccc(COC3CCN(c4ncc(C(=O)N[C@H]5C(C)(C)[C@H](Oc6ccc(C#N)c(Cl)c6)C5(C)C)cn4)CC3)c2)c(-c2cn(C)c(=O)c3[nH]ccc23)c1 [Compound I-18, N-((1r, 3r)-3-(3-chloro-4-cyanophenoxy)-2,2,4,4-tetramethylcyclobutyl)-2-(4-((3-(4-(ethylsulfonamido)-2-(6-methyl-7-oxo-6,7-dihydro-1H-pyrrolo[2,3-c]pyridin-4-yl)phenoxy)benzyl)oxy)piperidin-1-yl)pyrimidine-5-carboxamide]	> 7.30	–	< 500
CCS(=O)(=O)Nc1ccc(Oc2cccc(OCCOC3CCN(c4ccc(C(=O)N[C@H]5C(C)(C)[C@H](Oc6ccc(C#N)c(Cl)c6)C5(C)C)cn4)CC3)c2)c(-c2cn(C)c(=O)c3[nH]ccc23)c1 [Compound I-70, N-((1r, 3r)-3-(3-chloro-4-cyanophenoxy)-2,2,4,4-tetramethylcyclobutyl)-6-(4-(2-(3-(4-(ethylsulfonamido)-2-(6-methyl-7-oxo-6,7-dihydro-1H-pyrrolo[2,3-c]pyridin-4-yl)phenoxy)phenoxy)ethoxy)piperidin-1-yl)nicotinamide]	> 7.30	–	< 500
CCS(=O)(=O)Nc1ccc(Oc2cccc(OCCOC3CCN(c4cnc(C(=O)N[C@H]5C(C)(C)[C@H](Oc6ccc(C#N)c(Cl)c6)C5(C)C)cn4)CC3)c2)c(-c2cn(C)c(=O)c3[nH]ccc23)c1 [Compound I-71, N-((1r, 3r)-3-(3-chloro-4-cyanophenoxy)-2,2,4,4-tetramethylcyclobutyl)-5-(4-(2-(3-(4-(ethylsulfonamido)-2-(6-methyl-7-oxo-6,7-dihydro-1H-pyrrolo[2,3-c]pyridin-4-yl)phenoxy)phenoxy)ethoxy)piperidin-1-yl)pyrazine-2-carboxamide]	5.60 to 6.30	–	< 500
Cn1cc(-c2cc(C(C)(C)O)ccc2Oc2cccc(N3CC4(CN(c5ncc(C(=O)N[C@H]6C(C)(C)[C@H](Oc7ccc(C#N)c(Cl)c7)C6(C)C)cn5)CCO4)C3)c2F)c2cc[nH]c2c1=O [Compound I-216]	> 7.30	6.30 to 7.30	–
CCS(=O)(=O)c1ccc(Oc2cccc(OCCN3CCN(c4ncc5c(n4)CN([C@H]4C(C)(C)[C@H](Oc6ccc(C#N)c(Cl)c6)C4(C)C)C5=O)CC3)c2F)c(-c2cn(C)c(=O)c3[nH]ccc23)c1 [Compound I-217]	> 7.30	> 7.30	–
CCS(=O)(=O)c1ccc(OC(CCCCN2CCN(c3ncc(C(=O)NC4C(C)(C)C(Oc5ccc(C#N)c(Cl)c5)C4(C)C)cn3)CC2)C2CC2)c(-c2cn(C)c(=O)c3[nH]ccc23)c1 (stereo not shown) [Compound I-223, N-[3-(3-chloro-4-cyano-phenoxy)-2,2,4,4-tetramethyl-cyclobutyl]-2-[4-[5-cyclopropyl-5-[4-ethylsulfonyl-2-(6-methyl-7-oxo-1H-pyrrolo[2,3-c]pyridin-4-yl)phenoxy]pentyl]piperazin-1-yl]pyrimidine-5-carboxamide]	> 7.30	6.30 to 7.30	–

The next lines start with results.

pKi [1]	pIC50 [3]	SMILES	GI50 [2] [nM]
> 7.30	6.30 to 7.30	Cn1cc(-c2cc(C(C)(C)O)ccc2Oc2cccc(OCCN3CCN(c4ncc(C(=O)N[C@H]5C(C)(C)[C@H](Oc6ccc(C#N)c(Cl)c6)C5(C)C)cn4)CC3)c2F)c2cc[nH]c2c1=O [Compound I-99]	–
> 7.30	< 5.60	CCS(=O)(=O)Nc1ccc(Oc2ccc(OCC3CCN(c4ncc(C(=O)N[C@H]5C(C)(C)[C@H](Oc6ccc(C#N)c(Cl)c6)C5(C)C)cn4)CC3)cc2)c(-c2cn(C)c(=O)c3[nH]ccc23)c1 [Compound I-138]	< 500
6.30 to 7.30	< 5.60	Cn1cc(-c2cc(C(C)(C)O)ccc2Oc2ccc(CCC3CCN(c4ncc(C(=O)N[C@H]5C(C)(C)[C@H](Oc6ccc(C#N)c(Cl)c6)C5(C)C)cn4)CC3)cc2)c2cc[nH]c2c1=O [Compound I-203]	< 500
> 7.30	6.30 to 7.30	Cn1cc(-c2cc(C(C)(C)O)ccc2Oc2ccc(N3CC4(C3)CN(c3ncc(C(=O)N[C@H]5C(C)(C)[C@H](Oc6ccc(C#N)c(Cl)c6)C5(C)C)cn3)CCO4)cc2)c2cc[nH]c2c1=O [Compound I-212]	–
> 7.30	5.60 to 6.30	Cn1cc(-c2cc(C(C)(C)O)ccc2Oc2ccc(N3CC(CC4CCN(c5ncc(C(=O)N[C@H]6C(C)(C)[C@H](Oc7ccc(C#N)c(Cl)c7)C6(C)C)cn5)CC4)C3)cc2)c2cc[nH]c2c1=O [Compound I-232]	< 500
